For 1 molecule, Ki results are on record in publication PMC3085641 (Bioorganic & medicinal chemistry letters, 2011).

Each structure is given as a SMILES string.

A word on the Ki: it is a dissociation constant, usually derived from enzyme kinetics or from competition with a known ligand.

The target in this experiment is dopamine transporter (DAT) (Rattus norvegicus, UniProt P23977). In words: biochemical.
Sequence of dopamine transporter (DAT) (P23977 whole entry): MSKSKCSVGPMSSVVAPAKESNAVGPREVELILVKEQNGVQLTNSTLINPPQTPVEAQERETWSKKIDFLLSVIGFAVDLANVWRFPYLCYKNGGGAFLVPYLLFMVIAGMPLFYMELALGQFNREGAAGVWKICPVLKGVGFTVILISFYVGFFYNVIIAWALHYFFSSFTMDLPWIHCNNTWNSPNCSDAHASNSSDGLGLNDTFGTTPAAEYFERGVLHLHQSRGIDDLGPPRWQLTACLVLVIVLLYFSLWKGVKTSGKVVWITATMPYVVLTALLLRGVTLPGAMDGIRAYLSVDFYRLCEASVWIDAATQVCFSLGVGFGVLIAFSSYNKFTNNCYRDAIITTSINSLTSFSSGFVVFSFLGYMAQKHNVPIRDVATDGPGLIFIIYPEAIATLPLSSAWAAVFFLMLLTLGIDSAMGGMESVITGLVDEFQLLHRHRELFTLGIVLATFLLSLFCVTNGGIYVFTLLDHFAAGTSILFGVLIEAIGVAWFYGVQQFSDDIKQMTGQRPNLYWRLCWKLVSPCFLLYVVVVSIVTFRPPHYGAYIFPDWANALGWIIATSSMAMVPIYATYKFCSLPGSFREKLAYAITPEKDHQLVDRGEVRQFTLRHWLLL

`CN1C2CCC1[C@@H](CNc1ccc(Br)nc1)[C@@H](c1ccc(Cl)cc1)C2` (stereo partly shown) [Compound 6b] had a Ki of 0.017 µM.
